From patent EP4703362A1 (Chengdu Sibeibo Pharmaceutical Technology Co., Ltd, priority 2023, dated 2024) come the findings set out here.

T1 sequence (Q16602 23-461): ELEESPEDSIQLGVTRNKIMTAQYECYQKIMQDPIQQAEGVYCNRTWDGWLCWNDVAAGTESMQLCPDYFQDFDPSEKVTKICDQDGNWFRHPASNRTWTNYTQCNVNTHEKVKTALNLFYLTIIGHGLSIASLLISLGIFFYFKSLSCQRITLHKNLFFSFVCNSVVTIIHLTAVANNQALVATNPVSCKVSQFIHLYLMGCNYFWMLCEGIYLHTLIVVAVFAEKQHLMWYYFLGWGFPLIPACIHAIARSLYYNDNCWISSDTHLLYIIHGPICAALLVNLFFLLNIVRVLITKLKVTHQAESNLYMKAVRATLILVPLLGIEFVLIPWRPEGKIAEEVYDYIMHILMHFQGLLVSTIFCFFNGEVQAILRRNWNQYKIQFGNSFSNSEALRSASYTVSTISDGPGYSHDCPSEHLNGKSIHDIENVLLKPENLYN
T1 sequence (O60894 27-148): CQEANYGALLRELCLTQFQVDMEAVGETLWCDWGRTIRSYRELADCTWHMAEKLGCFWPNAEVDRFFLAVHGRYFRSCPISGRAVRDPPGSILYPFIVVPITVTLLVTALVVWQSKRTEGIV

One test has as its target T1, CGRP receptor complex (Homo sapiens, UniProt O60894+Q16602).
T1 construct: host or cells: SK-N-MC
Nature of the test: determination of cell functional antagonism - cAMP determination. Type of test: cell-based.
Conditions: not given
As for the experimental part: 1.Experimental principle A CGRP receptor complex was coupled with Gs in G protein, the combination of CGRP and CGRP receptor complex led to Gs activation, and cAMP (3',5'-cyclic adenosine monophosphate) was produced. 2.Experimental purpose The ability of the compound of the present invention to inhibit CGRP-stimulated cAMP formation in SK-N-MC cells was determined. 3.Experimental materials 3.1Experimental cell line: SK-N-MC (neuroepithelioma cells) from National Science and Technology Infrastructure - Biomedical Materials and Cell Resources. 3.2Reagents and consumables
4.Experimental steps • 4.1Cell preparation: The SK-N-MC cells were resuscitated and cultured in advance, and a cell confluence degree should be 70%-80% before use. • 4.2A sample dilution, a tested compound and α-CGRP (human) were prepared. • 4.3Cell seeding and drug effect: The SK-N-MC cells were digested, centrifuged, then resuspended with the sample dilution, and inoculated into a 384-well plate. Each well was added with the α-CGRP (human) and the tested compound respectively, and blown and mixed evenly. The well plate was adhered with a sealing film, and placed on an enzyme-labeled incubator to incubate at 25°C. • 4.4cAMP determination: carried out according to LANCE Ultra cAMP Kit specification Eu-cAMP tracer and ULight-anti-cAMP working solutions were prepared in the dark, respectively added into the well plate, and blown and mixed evenly.
As for `Cc1cc(C[C@@H](NC(=O)N2CCC(c3cc4c([nH]c3=O)SCC4)CC2)C(=O)N2CCC(C)(N3CCCCC3)CC2)cc2cn[nH]c12` [Example 22, (R)-N-(3-(7-methyl-1H-indazole-5-yl)-1-(4'-methyl-[1,4'-bipiperidine]-1'-yl)-1-oxopropan-2-yl)-4-(6-oxo-2,3,6,7-tetrahydrothieno[2,3-b]pyridine-6-yl)piperidine-1-formamide], the IC50 (commonly the midpoint of a concentration-inhibition curve) worked out at 0.81 nM.
Still for that read-out and setting: the same measure for `Cc1cc(C[C@@H](NC(=S)N2CCC(c3cc4c([nH]c3=O)SCCC4)CC2)C(=O)N2CCN(C3CCN(C)CC3)CC2)cc2cn[nH]c12` [Example 23]: 1.12 nM; for `Cc1cc(C[C@@H](NC(=O)N2CCC(c3cc4c([nH]c3=O)[S+]([O-])CCC4)CC2)C(=O)N2CCN(C3CCN(C)CC3)CC2)cc2cn[nH]c12` (stereo partly drawn) [Example 32, N-((R)-3-(7-methyl-1H-indazole-5-yl)-1-(4-(1-methylpiperidine-4-yl)piperazine-1-yl)-1-oxopropan-2-yl)-4-(1-oxidation-7-oxo-3,4,7,8-tetrahydro-2H-thiopyrano[2,3-b]pyridine-6-yl)pipe ridine-1-formamide]: 0.29 nM; for `Cc1cc(C[C@@H](NC(=O)N2CCC(c3cc4c([nH]c3=O)SCC43CC3)CC2)C(=O)N2CCN(C3CCN(C)CC3)CC2)cc2cn[nH]c12` [Example 33, (R)-N-(3-(7-methyl-1H-indazole-5-yl)-1-(4-(1-methylpiperidine-4-yl)piperazine-1-yl)-1-oxopropan-2-yl)-4-(6'-oxo-6',7'-dihydro-2'H-spiro[cyclopropane-1,3'-thieno][2,3-b]pyridine-5'-yl)piperidine-1-formamide]: 0.37 nM.
As to `Cc1cc(C[C@@H](NC(=O)N2CCC(c3cc4c([nH]c3=O)[S+]([O-])CC4)CC2)C(=O)N2CCN(C3CCN(C)CC3)CC2)cc2cn[nH]c12` (stereo partly drawn) [Example 35, N-((R)-3-(7-methyl-1H-indazole-5-yl)-1-(4-(1-methylpiperidine-4-yl)piperazine-1-yl)-1-oxopropan-2-yl)-4-(1-oxidation-6-oxo-2,3,6,7-tetrahydrothieno[2,3-b]pyridine-5-yl)piperidine-1-formamide], the IC50 came to 0.69 nM.
As to `Cc1cc(C[C@@H](NC(=O)N2CCC(c3cc4c([nH]c3=O)SCC4)CC2)C(=O)N2CC3CC2CC3N2CCCCC2)cc2cn[nH]c12` (some centres unmarked) [Example 36], the IC50 came out at 4.61 nM.
Same read-out and setting: the same measure for `Cc1cc(CC(OC(=O)N2CCC(c3cc4c([nH]c3=O)SCCC4)CC2)C(=O)N2CCN(C3CCN(C)CC3)CC2)cc2cn[nH]c12` (centres unmarked) [Example 41]: 0.38 nM; for `Cc1cc(C[C@@H](NC(=O)N2CCC(c3cc4c([nH]c3=O)SCC3CC43)CC2)C(=O)N2CCN(C3CCN(C)CC3)CC2)cc2cn[nH]c12` (stereo partly drawn) [Example 47, N-((R)-3-(7-methyl-1H-indazole-5-yl)-1-(4-(1-methylpiperidine-4-yl)piperazine-1-yl)-1-oxopropan-2-yl)-4-(5-oxo-1,1a,2,4,5,7b-hexahydrocyclopropo[4,5]thiopyrano[2,3-b]pyridine-6-yl)piperidine-1-formamide]: 0.24 nM.
As to `Cc1cc(C[C@@H](NC(=O)N2CCC(c3cc4c([nH]c3=O)CCC4)CC2)C(=O)N2CCN(C3CCN(C)CC3)CC2)cc2cn[nH]c12` [Example 51, (R)-N-(3-(7-methyl-1H-indazole-5-yl)-1-(4-(1-methylpiperidine-4-yl)piperazine-1-yl)-1-oxopropan-2-yl)-4-(2-oxo-2,5,6,7-tetrahydro-1H-cyclopentadieno[b]pyridine-3-yl)piperidine-1-f ormamide], the IC50 worked out at 1.94 nM.

Still in this test, the particulars now being: inhibition of CGRP-stimulated cAMP formation in SK-N-MC cells; read-out: IC50.
As to `Cc1cc(C[C@@H](NC(=O)N2CCC(c3cc4c([nH]c3=O)SCCC4)CC2)C(=O)N2CCC(C)(N3CCCCC3)CC2)cc2cn[nH]c12` [Example 24, (R)-N-(3-(7-methyl-1H-indazole-5-yl)-1-(4'-methyl-[1,4'-bipiperidine]-1'-yl)-1-oxopropan-2-yl)-4-(7-oxo-3,4,7,8-tetrahydro-2H-thiopyrano[2,3-b]pyridine-6-yl)piperidine-1-formamide], the IC50 turned out to be 1.02 nM.
The same measure, in the same setting: the value for `Cc1cc(C[C@@H](NC(=O)N2CCC(c3cc4c([nH]c3=O)SCCC4)CC2)C(=O)N2CCC(N3CCCCC3)CC2)cc2cn[nH]c12` [Example 26, (R)-N-(1-([1,4'-bipiperidine]-1'-yl)-3-(7-methyl-1H-indazole-5-yl)-1-oxopropan-2-yl)-4-(7-oxo-3,4,7,8-tetrahydro-2H-thiopyrano[2,3-b]pyridine-6-yl)piperidine-1-formamide] was 0.1 nM; that for `Cc1cc(CC(CC(=O)N2CCC(c3cc4c([nH]c3=O)SCCC4)CC2)C(=O)N2CCN(C3CCN(C)CC3)CC2)cc2cn[nH]c12` (centres unmarked) [Example 27, 2-((7-methyl-1H-indazole-5-yl)methyl)-1-(4-(1-methylpiperidine-4-yl)piperazine-1-yl)-4-(4-(7-oxo-3,4,7,8-tetrahydro-2H-thiopyrano[2,3-b]pyridine-6-yl)piperidine-1-yl)butane-1,4-dione] was 1.24 nM; that for `Cc1cc(CC(CC(=O)N2CCC(c3cc4c([nH]c3=O)SCC4)CC2)C(=O)N2CCN(C3CCN(C)CC3)CC2)cc2cn[nH]c12` (centres unmarked) [Example 31, 2-((7-methyl-1H-indazole-5-yl)methyl)-1-(4-(1-methylpiperidine-4-yl)piperazine-1-yl)-4-(4-(6-oxo-2,3,6,7-tetrahydrothieno[2,3-b]pyridine-5-yl)piperidine-1-yl)butane-1,4-dione] was 2.05 nM.
Same read-out and setting: the value for `Cc1cc(C[C@@H](NC(=O)N2CCC(c3cc4c([nH]c3=O)SCCC4)CC2)C(=O)N2C3CCC2CC(N2CCCCC2)C3)cc2cn[nH]c12` (stereo partly drawn) [Example 39, N-((2R)-3-(7-methyl-1H-indazole-5-yl)-1-oxo-1-(3-(piperidine-1-yl)-8-azabicyclo[3.2.1]octane-8-yl)propan-2-yl)-4-(7-oxo-3,4,7,8-tetrahydro-2H-thiopyrano[2,3-b]pyridine-6-yl)piperidine-1-formamide] was 0.13 nM; that for `Cc1cc(C[C@@H](NC(=O)N2CCC(c3cc4c([nH]c3=O)SCCC4)CC2)C(=O)N2CC3CC2CC3N2CCCCC2)cc2cn[nH]c12` (stereo partly drawn) [Example 40, N-((2R)-3-(7-methyl-1H-indazole-5-yl)-1-oxo-1-(5-(piperidine-1-yl)-2-azabicyclo[2.2.1]hept-2-yl)propan-2-yl)-4-(7-oxo-3,4,7,8-tetrahydro-2H-thiopyrano[2,3-b]pyridine-6-yl)piperidine-1-formamide] was 3.47 nM; that for `Cc1cc(CC(OC(=O)N2CCC(c3cc4c([nH]c3=O)SCC4)CC2)C(=O)N2CCN(C3CCN(C)CC3)CC2)cc2cn[nH]c12` (centres unmarked) [Example 42, 3-(7-methyl-1H-indazole-5-yl)-1-(4-(1-methylpiperidine-4-yl)piperazine-1-yl)-1-oxopropan-2-yl-4-(6-oxo-2,3,6,7-tetrahydrothieno[2,3-b]pyridine-5-yl)piperidine-1-formate] was 0.27 nM.
On the same count and under the same terms, the same measure for `Cc1cc(C[C@@H](NC(=O)N2CCC(c3cc4c([nH]c3=O)SCC3(CC3)C4)CC2)C(=O)N2CCN(C3CCN(C)CC3)CC2)cc2cn[nH]c12` [Example 46, (R)-N-(3-(7-methyl-1H-indazole-5-yl)-1-(4-(1-methylpiperidine-4-yl)piperazine-1-yl)-1-oxopropan-2-yl)-4-(7'-oxo-7',8'-dihydro-2'H,4'H-spiro[cyclopropane-1,3'-thiopyrano[2,3-b]pyridine]-6'-yl)piperidine-1-formamide]: 0.15 nM.
Regarding `Cc1cc(C[C@@H](NC(=O)N2CCC(c3cc4c([nH]c3=O)SCCC4)CC2)C(=O)N2CCN(C3CCNCC3)CC2)cc2cn[nH]c12` [Example 49, (R)-N-(3-(7-methyl-1H-indazole-5-yl)-1-oxo-1-(4-(piperidine-4-yl)piperazine-1-yl)propan-2-yl)-4-(7-oxo-3,4,7,8-tetrahydro-2H-thiopyrano[2,3-b]pyridine-6-yl)piperidine-1-formamide], the IC50 worked out at 0.14 nM.
`Cc1cc(C[C@@H](NC(=O)N2CCC(c3cc4c([nH]c3=O)SCC4)CC2)C(=O)N2CCN(C3CCNCC3)CC2)cc2cn[nH]c12` [Example 50, (R)-N-(3-(7-methyl-1H-indazole-5-yl)-1-oxo-1-(4-(piperidine-4-yl)piperazine-1-yl)propan-2-yl)-4-(6-oxo-2,3,6,7-tetrahydrothieno[2,3-b]pyridine-5-yl)piperidine-1-formamide]: the IC50 stood at 0.07 nM.
`Cc1cc(C[C@@H](NC(=O)N2CCC(c3cc4c([nH]c3=O)CCCC4)CC2)C(=O)N2CCN(C3CCN(C)CC3)CC2)cc2cn[nH]c12` [Example 52, (R)-N-(3-(7-methyl-1H-indazole-5-yl)-1-(4-(1-methylpiperidine-4-yl)piperazine-1-yl)-1-oxopropan-2-yl)-4-(2-oxo-1,2,5,6,7,8-hexahydroquinoline-3-yl)piperidine-1-formamide]: the IC50 worked out at 1.04 nM.
